Experiments:
[1] = tested on: B. subtilis 168; assay: fitness (endpoint OD595 vs no drug) (fraction); higher = more growth
Method in brief: (§1)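 Background-subtracted growth curves were the basis for fitness, taken as the optical density at entry into stationary phase over the robust mean of no-drug control wells. A cap of 1 was applied. The curves came from OD595 readings every 30 min for 14 h at 37 °C, in 384-well plates seeded at OD595 0.01 with 30 µl, or 55 µl for S. pneumoniae.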

[2] = tested on: S. aureus DSM 20231; assay: as above
Method in brief: as §1

[3] = tested on: S. pneumoniae D39V; assay: as above
Method in brief: as §1

[4] = tested on: B. subtilis 168; assay: Bliss interaction score (quartile over a dose matrix) (fitness difference); higher = more antagonism (negative = synergy)
Method in brief: (§2)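 Fitness was defined as normalised growth: OD595 at the start of stationary phase divided by the plate's robust no-drug mean and capped at 1. Single-drug fitness was inferred from combination measurements. The Bliss score is observed fitness minus the product of the single-drug values, summarised by quartiles across technical, biological and donor/recipient replicates.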

[5] = tested on: S. aureus Newman; assay: as above
Method in brief: as §2

[6] = tested on: S. aureus DSM 20231; assay: as above
Method in brief: as §2

[7] = tested on: S. pneumoniae D39V; assay: as above
Method in brief: as §2

[8] = first compound 0.1 µg/mL, partner 1 µg/mL
[9] = first compound 0.1 µg/mL, partner 2 µg/mL
[10] = first compound 0.1 µg/mL, partner 4 µg/mL
[11] = first compound 0.2 µg/mL, partner 1 µg/mL
[12] = first compound 0.2 µg/mL, partner 2 µg/mL
[13] = first compound 0.2 µg/mL, partner 4 µg/mL
[14] = first compound 0.4 µg/mL, partner 1 µg/mL
[15] = first compound 0.4 µg/mL, partner 2 µg/mL
[16] = first compound 0.4 µg/mL, partner 4 µg/mL
[17] = first compound 0.8 µg/mL, partner 1 µg/mL, one replicate
[18] = first compound 0.8 µg/mL, partner 2 µg/mL, one replicate
[19] = first compound 0.2 µg/mL, partner 1 µg/mL, one replicate
[20] = first compound 0.4 µg/mL, partner 1 µg/mL, one replicate
[21] = first compound 0.1 µg/mL, partner 0.5 µg/mL
[22] = first compound 0.2 µg/mL, partner 0.125 µg/mL
[23] = first compound 0.2 µg/mL, partner 0.5 µg/mL
[24] = first compound 0.4 µg/mL, partner 0.125 µg/mL
[25] = first compound 0.4 µg/mL, partner 0.5 µg/mL
[26] = first compound 0.1 µg/mL, partner 0.15 µg/mL
[27] = first compound 0.1 µg/mL, partner 0.3 µg/mL
[28] = first compound 0.1 µg/mL, partner 0.6 µg/mL
[29] = first compound 0.2 µg/mL, partner 0.15 µg/mL
[30] = first compound 0.2 µg/mL, partner 0.3 µg/mL
[31] = first compound 0.2 µg/mL, partner 0.6 µg/mL
[32] = first compound 0.4 µg/mL, partner 0.15 µg/mL
[33] = first compound 0.4 µg/mL, partner 0.3 µg/mL
[34] = first compound 0.4 µg/mL, partner 0.6 µg/mL
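For Bliss interaction score (quartile over a dose matrix) in this document: first quartile when negative (synergy) and third quartile when positive (antagonism).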

CCC[C@@H]1C[C@@H](C(=O)N[C@@H]([C@H]2O[C@H](SC)[C@H](O)[C@@H](O)[C@H]2O)[C@@H](C)O)N(C)C1 [Lincomycin] + Cc1cc(NS(=O)(=O)c2ccc(N)cc2)no1 [Sulfamethoxazol]
fitness [1, 8]: 0.831
fitness [1, 9]: 0.872
fitness [1, 10]: 0.893
fitness [1, 11]: 0.862
fitness [1, 12]: 0.874
fitness [1, 13]: 0.938
fitness ([1]; first compound 0.4 µg/mL, partner 0.5 µg/mL, one replicate): 0.903
fitness [1, 14]: 0.891
fitness [1, 15]: 0.841
fitness [1, 16]: 0.895
fitness ([1]; first compound 0.8 µg/mL, partner 0.5 µg/mL, one replicate): 0.806
fitness [1, 17]: 0.76
fitness [1, 18]: 0.795
fitness ([1]; first compound 1.6 µg/mL, partner 0.5 µg/mL, one replicate): 0.862
fitness ([1]; first compound 1.6 µg/mL, partner 1 µg/mL, one replicate): 0.698
fitness ([1]; first compound 1.6 µg/mL, partner 2 µg/mL, one replicate): 0.788
fitness [2, 8]: 0.82
fitness [2, 9]: 0.815
fitness [2, 10]: 0.828
fitness [2, 11]: 0.616
fitness [2, 12]: 0.687
fitness [2, 13]: 0.697
fitness [2, 14]: 0.343
fitness [2, 15]: 0.37
fitness [2, 16]: 0.304
fitness [3, 19]: 0.731
fitness ([3]; first compound 0.2 µg/mL, partner 2 µg/mL, one replicate): 0.761
fitness ([3]; first compound 0.2 µg/mL, partner 4 µg/mL, one replicate): 0.724
fitness ([3]; first compound 0.215 µg/mL, partner 1 µg/mL): 0.746
fitness ([3]; first compound 0.215 µg/mL, partner 2 µg/mL): 0.762
fitness ([3]; first compound 0.215 µg/mL, partner 4 µg/mL): 0.786
fitness [3, 20]: 0.674
fitness ([3]; first compound 0.4 µg/mL, partner 2 µg/mL, one replicate): 0.688
fitness ([3]; first compound 0.4 µg/mL, partner 4 µg/mL, one replicate): 0.621
fitness ([3]; first compound 0.43 µg/mL, partner 1 µg/mL): 0.658
fitness ([3]; first compound 0.43 µg/mL, partner 2 µg/mL): 0.676
fitness ([3]; first compound 0.43 µg/mL, partner 4 µg/mL): 0.691
fitness [3, 17]: 0.323
fitness [3, 18]: 0.346
fitness ([3]; first compound 0.8 µg/mL, partner 4 µg/mL, one replicate): 0.308
fitness ([3]; first compound 0.86 µg/mL, partner 1 µg/mL): 0.252
fitness ([3]; first compound 0.86 µg/mL, partner 2 µg/mL): 0.214
fitness ([3]; first compound 0.86 µg/mL, partner 4 µg/mL): 0.265
Bliss interaction score [4]: -0.0615
Bliss interaction score [5]: 0.0671
Bliss interaction score [6]: -0.0797
Bliss interaction score [7]: -0.128

CCC[C@@H]1C[C@@H](C(=O)N[C@@H]([C@H]2O[C@H](SC)[C@H](O)[C@@H](O)[C@H]2O)[C@@H](C)O)N(C)C1 [Lincomycin] + CC(=O)NC[C@H]1CN(c2ccc(N3CCOCC3)c(F)c2)C(=O)O1 [Linezolid]
fitness [1, 21]: 0.0626
fitness [1, 22]: 0.643
fitness [1, 23]: 0.0527
fitness ([1]; first compound 0.4 µg/mL, partner 0.0625 µg/mL, one replicate): 0.87
fitness [1, 24]: 0.629
fitness [1, 25]: 0.0589
fitness ([1]; first compound 0.8 µg/mL, partner 0.0625 µg/mL, one replicate): 0.867
fitness ([1]; first compound 0.8 µg/mL, partner 0.125 µg/mL, one replicate): 0.633
fitness ([1]; first compound 0.8 µg/mL, partner 0.25 µg/mL, one replicate): 0.102
fitness ([1]; first compound 1.6 µg/mL, partner 0.0625 µg/mL, one replicate): 0.847
fitness ([1]; first compound 1.6 µg/mL, partner 0.125 µg/mL, one replicate): 0.638
fitness ([1]; first compound 1.6 µg/mL, partner 0.25 µg/mL, one replicate): 0.0942
fitness ([2]; first compound 0.1 µg/mL, partner 0.125 µg/mL): 0.824
fitness ([2]; first compound 0.1 µg/mL, partner 0.25 µg/mL): 0.628
fitness [2, 21]: 0.276
fitness ([2]; first compound 0.1 µg/mL, partner 1 µg/mL, one replicate): 0.0602
fitness [2, 22]: 0.583
fitness [2, 23]: 0.192
fitness [2, 19]: 0.0846
fitness [2, 24]: 0.244
fitness ([2]; first compound 0.4 µg/mL, partner 0.25 µg/mL): 0.146
fitness [2, 25]: 0.0893
fitness [2, 20]: 0.0423
fitness ([3]; first compound 0.2 µg/mL, partner 0.105 µg/mL): 0.717
fitness ([3]; first compound 0.2 µg/mL, partner 0.21 µg/mL): 0.658
fitness ([3]; first compound 0.2 µg/mL, partner 0.42 µg/mL): 0.519
fitness ([3]; first compound 0.215 µg/mL, partner 0.2 µg/mL): 0.716
fitness ([3]; first compound 0.215 µg/mL, partner 0.4 µg/mL): 0.649
fitness ([3]; first compound 0.215 µg/mL, partner 0.8 µg/mL): 0.413
fitness ([3]; first compound 0.4 µg/mL, partner 0.105 µg/mL): 0.627
fitness ([3]; first compound 0.4 µg/mL, partner 0.21 µg/mL): 0.601
fitness ([3]; first compound 0.4 µg/mL, partner 0.42 µg/mL): 0.234
fitness ([3]; first compound 0.43 µg/mL, partner 0.2 µg/mL): 0.642
fitness ([3]; first compound 0.43 µg/mL, partner 0.4 µg/mL): 0.583
fitness ([3]; first compound 0.43 µg/mL, partner 0.8 µg/mL): 0.306
fitness ([3]; first compound 0.8 µg/mL, partner 0.105 µg/mL): 0.278
fitness ([3]; first compound 0.8 µg/mL, partner 0.21 µg/mL): 0.128
fitness ([3]; first compound 0.8 µg/mL, partner 0.42 µg/mL): 0.0738
fitness ([3]; first compound 0.86 µg/mL, partner 0.2 µg/mL): 0.392
fitness ([3]; first compound 0.86 µg/mL, partner 0.4 µg/mL): 0.311
fitness ([3]; first compound 0.86 µg/mL, partner 0.8 µg/mL): 0.13
Bliss interaction score [4]: 0.158
Bliss interaction score [5]: -0.088
Bliss interaction score [6]: -0.069
Bliss interaction score [7]: 0.0482

CCC[C@@H]1C[C@@H](C(=O)N[C@@H]([C@H]2O[C@H](SC)[C@H](O)[C@@H](O)[C@H]2O)[C@@H](C)O)N(C)C1 [Lincomycin] + CN(N=O)C(=O)N[C@@H](C=O)[C@@H](O)[C@H](O)[C@H](O)CO [Streptozotocin]
fitness [1, 26]: 0.957
fitness [1, 27]: 0.966
fitness [1, 28]: 0.956
fitness [1, 29]: 0.99
fitness [1, 30]: 0.93
fitness [1, 31]: 0.953
fitness [1, 32]: 0.994
fitness [1, 33]: 0.997
fitness [1, 34]: 0.99
fitness [2, 26]: 0.804
fitness [2, 27]: 0.796
fitness [2, 28]: 0.708
fitness [2, 29]: 0.635
fitness [2, 30]: 0.611
fitness [2, 31]: 0.565
fitness [2, 32]: 0.282
fitness [2, 33]: 0.267
fitness [2, 34]: 0.177
fitness ([3]; first compound 0.2 µg/mL, partner 1.2 µg/mL, one replicate): 0.767
fitness ([3]; first compound 0.2 µg/mL, partner 2.4 µg/mL, one replicate): 0.734
fitness ([3]; first compound 0.2 µg/mL, partner 4.8 µg/mL, one replicate): 0.639
fitness ([3]; first compound 0.215 µg/mL, partner 1.2 µg/mL): 0.752
fitness ([3]; first compound 0.215 µg/mL, partner 2.4 µg/mL): 0.754
fitness ([3]; first compound 0.215 µg/mL, partner 4.8 µg/mL): 0.793
fitness ([3]; first compound 0.4 µg/mL, partner 1.2 µg/mL, one replicate): 0.683
fitness ([3]; first compound 0.4 µg/mL, partner 2.4 µg/mL, one replicate): 0.683
fitness ([3]; first compound 0.4 µg/mL, partner 4.8 µg/mL, one replicate): 0.553
fitness ([3]; first compound 0.43 µg/mL, partner 1.2 µg/mL): 0.664
fitness ([3]; first compound 0.43 µg/mL, partner 2.4 µg/mL): 0.661
fitness ([3]; first compound 0.43 µg/mL, partner 4.8 µg/mL): 0.705
fitness ([3]; first compound 0.8 µg/mL, partner 1.2 µg/mL, one replicate): 0.181
fitness ([3]; first compound 0.8 µg/mL, partner 2.4 µg/mL, one replicate): 0.273
fitness ([3]; first compound 0.8 µg/mL, partner 4.8 µg/mL, one replicate): 0
fitness ([3]; first compound 0.86 µg/mL, partner 1.2 µg/mL): 0.148
fitness ([3]; first compound 0.86 µg/mL, partner 2.4 µg/mL): 0.261
fitness ([3]; first compound 0.86 µg/mL, partner 4.8 µg/mL): 0.237
Bliss interaction score [4]: -0.0171
Bliss interaction score [5]: 0.125
Bliss interaction score [6]: 0.0558
Bliss interaction score [7]: -0.138

From the supplement of paper PMC10627819
